Patent US11732008B2, “Preparation of functional homocysteine residues in polypeptides and peptides” (The Regents of the University of California, priority 2016, dated 2023)
Each block holds one substance with its values, some of them ahead of it.

Legend:
[1] = Chain conformation / helicity by circular dichroism (CD) spectroscopy; type: physicochemical; details: 20° C.
Experimental: For M60 (SEQ ID NO: 1), no data are presented below 204 nm due to solvent absorption that prohibits data collection. 31 found to be 85% α-helical. All CD spectra recorded at 0.5 mg/ml, 20° C. Figure discloses “C^H60” as SEQ ID NO: 2.
(§1) FIGS. 7A and 7B show CD Spectra and heating curves of exemplary OEG-Hcy derivatives.
Heating or cooling rate: 1° C./min, transmittance recorded at 500 nm. […] (label: 20° C.*).
All data were recorded in H2O at 0.5 mg/mL, 20° C. For 5b no data were recorded below 198 nm due to sulfoxide absorption.

[2] = Cloud point temperature (Tcp) by transmittance while heating; type: physicochemical; details: for Tcp (° C.): polymer 3.0 mg/mL in H2O, heated 1° C./min, temperature of 50% transmittance at 500 nm, —a = no Tcp detected, fully soluble 20 to 80° C., NA^b = insoluble in H2O down to 5° C.
Experimental: as §1
The incorporation of precise side-chain structural modifications, enabled systematic study of the effects of different functionalities on the properties of the materials. […] Cloud point temperatures (Tcp) were determined at 50% transmittance by monitoring solution transmittance as a function of temperature, and were used to approximate the equilibrium LCST values. Since chain length variation and polymer concentration are well known to affect Tcp values, all samples were identical in length, being prepared from the same stock of M60 (SEQ ID NO: 1).

Substance: Poly(L-methionine)60 [Sample M60, reference compound]
- chain conformation ([1]; CD in THF, 0.5 mg/ml): helical
- water solubility (in words) (Solubility in water): water-insoluble

- Tcp (° C.) [2]: 41 °C
Substance: Poly(S-(2-(((2-methoxyethoxy)carbonyl)oxy)-4,7,10,13-tetraoxatetradecyl)-L-homocysteine) [Sample 3b]

Substance: Poly(S-(2-acetoxy-4,7,10,13-tetraoxatetradecyl)-L-homocysteine) [Sample 3a]
- Tcp (° C.) [2]: 39 °C

- Tcp / LCST in water, present or not [2]: neither polymer has a LCST
- chain conformation ([1]; CD in water, 0.5 mg/mL): α-helical conformation
- α-helical (%) ([1]; CD in water, 0.5 mg/mL): 86%
- water solubility (in words) (Solubility in water): good solubility
Substance: Poly(S-(2-hydroxy-4,7-dioxaoctyl)-L-homocysteine sulfone) [Sample 5b]

- Tcp / LCST in water, present or not [2]: neither polymer has a LCST
- chain conformation ([1]; CD in water, 0.5 mg/mL): disordered conformation
- water solubility (in words) (Solubility in water): good solubility
Substance: Poly(S-(2-hydroxy-4,7-dioxaoctyl)-L-homocysteine sulfoxide) [Sample 5a]

Substance: Poly(S-(3-(2-acetoxyethoxy)-2-hydroxypropyl)-L-homocysteine) [Sample 2c]
- water solubility (in words) (Solubility in water): water insoluble

Substance: Poly(S-(3-(2-hydroxyethoxy)-2-hydroxypropyl)-L-homocysteine) [Sample 2a]
- water solubility (in words) (Solubility in water): fully water soluble

Substance: Poly(S-(3-(2-methoxyethoxy)-2-hydroxypropyl)-DL-homocysteine) [rac-2b]
- water solubility (in words) (Solubility in water): fully water soluble
